Several values for one entry are separate records, joined by “and”; a condition that tells them apart may be missing. Identical values can stand only once.

The test system of series [1] is Trypanosoma brucei. The following applies: read-out: inhibitory concentration against T. brucei; cited from earlier work.
Series [2] concerns Leishmania major. The settings on record: read-out: inhibitory concentration against L. major; cited from earlier work.
Series [3] relates to T. brucei BSF. In words: Antitrypanosomal activity, alamarBlue assay. The settings on record: for Selectivity Index (SI) T. brucei: SI = IC50 MRC-5/IC50 parasite; for IC50: bloodstream form, 72 h incubation, alamarBlue, error reported as σ. It is filed as cell-based, Trypanosoma brucei. As for the experimental part: The in vitro antitrypanosomal and antileishmanial activity of the BODIPY derivatives were evaluated on the bloodstream form (BSF) of T. brucei and the promastigote form of L. major parasites. The toxicity of the compounds was determined after 72 h of incubation using the alamarBlue assay (for T. brucei) and the MTT assay (for L. major). The cytotoxicity of the compounds on a healthy human cell line (human lung fibroblast, MRC-5) was also determined after 72 h of incubation using the alamarBlue assay. The data were expressed as the half maximal inhibitory concentration (IC50). The selectivity index (SI) of each derivative was calculated by dividing the IC50 of MRC-5 cells into the IC50 of T. brucei or L. major.
T. brucei (Lister 427, antigenic type MiTat 1.2, clone 221a, bloodstream forms, “single marker” S427 (S16)) were cultured at 37 °C, 5% CO2 in HMI-9 medium supplemented with 10% heat-inactivated fetal bovine serum (hiFBS, Invitrogen, Carlsbad, CA, USA), as previously described.
The antitrypanosomal activity of the BODIPY derivatives was determined by the alamarBlue® assay (ThermoFisher Scientific, Waltham, MA, USA). The stock solutions of the compounds were prepared in DMSO and the final DMSO percentage in each well was adjusted to be less than 1%. A total of 2 × 10^4 parasites per mL were incubated at 37 °C, 5% CO2 in 96-well plates (50 μL/well) alone or in the presence of an increasing concentration of compounds for 72 h. A total of 20 μL of resazurin solution (110 ng/mL) was then added to each well, and the parasites were incubated for 4 h at 37 °C. Finally, cells were lysed with 50 μL per well of SDS 3%. The plate was incubated at 37 °C for an extra hour and then, fluorescence intensity was measured with an Infinite F200 plate reader (Tecan Austria, GmbH, Grödig, Austria), exciting at 550 nm and recording the emission at 590 nm. The results are expressed as the concentration of a compound that reduces cell growth by 50% versus untreated control cells (IC50). Data are presented as the average of at least three independent measurements, all conducted in triplicate conditions.
A general note: Resazurin is reduced to fluorescent resorufin, in cell work by metabolically active cells.

Series [4] has as its system L. major promastigotes. Put plainly: Antileishmanial activity, MTT-based assay. It is filed as cell-based, Leishmania major. The following applies: for IC50: promastigotes, 72 h incubation, MTT, error reported as σ; for Selectivity Index (SI) L. major: SI = IC50 MRC-5/IC50 parasite; for antileishmanial activity (in words): classification used for docking analysis. As for the experimental part:
The in vitro antitrypanosomal and antileishmanial activity of the BODIPY derivatives were evaluated on the bloodstream form (BSF) of T. brucei and the promastigote form of L. major parasites. The toxicity of the compounds was determined after 72 h of incubation using the alamarBlue assay (for T. brucei) and the MTT assay (for L. major). The cytotoxicity of the compounds on a healthy human cell line (human lung fibroblast, MRC-5) was also determined after 72 h of incubation using the alamarBlue assay. The data were expressed as the half maximal inhibitory concentration (IC50). The selectivity index (SI) of each derivative was calculated by dividing the IC50 of MRC-5 cells into the IC50 of T. brucei or L. major. L. major (MHOM/IL/80/Friedlin) promastigotes were cultured at 28 °C, 5% CO2 in modified RPMI-1640 medium (Invitrogen, Carlsbad, CA, USA) supplemented with 10% hiFBS [49]. Parasites were maintained in culture in their […] growth phase (below 2 million parasites per mL for T. brucei and 10 million parasites per mL for L. major). The antileishmanial activity of the BODIPY derivatives was assessed using an MTT-based assay (Sigma-Aldrich, St. Louis, MO, USA). The stock solutions of the compounds were prepared in DMSO and the final DMSO percentage in each well was adjusted to be less than 1%. A total of 4 × 10^6 parasites per mL were incubated at 28 °C in 96-well plates (50 μL/well) alone or in the presence of an increasing concentration of compounds DMSO for 72 h. A total of 10 μL of MTT (5 mg/mL) were added to each well and parasites were incubated for 4 h at 28 °C. Finally, cells were lysed with 50 μL/well of 20% SDS. The plate was incubated at 37 °C for an extra hour and then, absorbance was measured at the Infinite F200 plate reader (TECAN Austria, GmbH, Grödig, Austria) at a wavelength of 540 nm. The IC50 was calculated as described above. Data are presented as the average of at least three independent measurements, all conducted in triplicate conditions.
Background: Formazan colour is commonly taken as a measure of viable cells.

Series [5] has as its system MRC-5 cell line (human lung fibroblast). Put plainly: Cytotoxicity, alamarBlue assay. The following applies: 72 h incubation, error reported as σ. It is filed as cell-based. The protocol:
The in vitro antitrypanosomal and antileishmanial activity of the BODIPY derivatives were evaluated on the bloodstream form (BSF) of T. brucei and the promastigote form of L. major parasites. The toxicity of the compounds was determined after 72 h of incubation using the alamarBlue assay (for T. brucei) and the MTT assay (for L. major). The cytotoxicity of the compounds on a healthy human cell line (human lung fibroblast, MRC-5) was also determined after 72 h of incubation using the alamarBlue assay. The data were expressed as the half maximal inhibitory concentration (IC50). The selectivity index (SI) of each derivative was calculated by dividing the IC50 of MRC-5 cells into the IC50 of T. brucei or L. major. MRC-5 cell line (human lung fibroblast) was grown in a monolayer at 37 °C, 5% CO2 in DMEM medium (1 g/L glucose) supplemented with 10% hiFBS, 100 U/mL penicillin, […] and 2 mM L-glutamine. Cytotoxicity was measured in MRC-5 through alamarBlue® assay (ThermoFisher Scientific). The stock solutions of the compounds were prepared in DMSO and the final DMSO percentage in each well was adjusted to be less than 1%. A total of 5 × 10^3 cells per mL were seeded in 96-well plates (100 μL/well) with 24 h of incubation time before compound addition at 37 °C, 5% CO2. Then, the compounds were added at increasing concentrations (from 0 to 100 μM) and the plates were incubated for 72 h. A total of 20 μL of resazurin solution (110 ng/mL) was added to each well and cells were incubated for 4 h. Then, cells were lysed with 50 μL/well of 3% SDS. The plate was incubated at 37 °C for an extra hour and then, the fluorescence intensity was measured at the Infinite F200 plate reader (TECAN Austria, GmbH), exciting at 550 nm and recording the emission at 590 nm. The results are expressed as the concentration of a compound that reduces cell growth by 50% versus untreated control cells (IC50). Data are presented as the average of at least three independent measurements, all conducted in triplicate conditions.

Series [6] can be described thus: Solubility in water (statement). The class given is physicochemical.

As to `CN(Cc1cnc2nc(N)nc(N)c2n1)c1ccc(C(=O)N[C@@H](CCC(=O)O)C(=O)O)cc1` [methotrexate], the IC50 in series [1] is 2.7 µM; in series [2], 3.6 µM.
For `CC1=C(I)C(C)=[N+]2C1=C(c1c3ccccc3cc3ccccc13)c1c(C)c(I)c(C)n1[B-]2(F)F` [Compound 4c], the “Selectivity Index (SI) T. brucei” value in series [3] worked out at 1.72. Further, the IC50 in series [3] (Trypanosoma brucei) is 28.1 ± 1.77 µM; in series [4] (Leishmania major) it was > 50 µM; in series [5] (MRC5, healthy human lung fibroblasts) it was 48.2 ± 1.13 µM. In addition, the “Selectivity Index (SI) L. major” value in series [4] is given as <0.96. Further, the “solubility in water (in words)” value in series [6] is on record as “low solubility in water”.
In the case of `CC1=C(C=O)C(C)=[N+]2C1=C(c1c3ccccc3cc3ccccc13)c1c(C)cc(C)n1[B-]2(F)F` [Compound 2c], in series [3], the “Selectivity Index (SI) T. brucei” value was 11 and 10.84; the IC50 stood at 6.17 ± 2.35 µM. The “antitrypanosomal activity (in words)” value in series [3] (classification used for docking analysis) is reported as “present antitrypanosomal activity”. Further, in series [4], the “Selectivity Index (SI) L. major” value turned out to be 6.47, the “antileishmanial activity (in words)” value is “present antileishmanial activity” and the IC50 is 10.3 ± 1.59 µM. For the same compound, in series [5] (healthy human lung fibroblasts), the IC50 was found to be 66.9 ± 7.65 µM.
As to `CC1=CC(C)=[N+]2C1=C(c1nccs1)c1c(C)cc(C)n1[B-]2(F)F` [Compound 1g], in series [3], the “Selectivity Index (SI) T. brucei” value is on record as 1.49 and the IC50 was 55.7 ± 1.65 µM. Besides, in series [4], the “Selectivity Index (SI) L. major” value is given as <0.83 and the IC50 is > 100 µM. For the same compound, the IC50 in series [5] (healthy human lung fibroblasts) was 82.8 ± 1.2 µM.
The matching figures for `CCn1c2ccccc2c2cc(C3=C4C(C)=CC(C)=[N+]4[B-](F)(F)n4c(C)cc(C)c43)ccc21` [Compound 1e]: 4.77, 18.7 ± 2.67 µM, <0.89, > 100 µM and 88.9 ± 3.82 µM.
Regarding `CC1=CC(C)=[N+]2C1=C(c1ccc(N(C)C)c3ccccc13)c1c(C)c(-c3nc4ccccc4[nH]3)c(C)n1[B-]2(F)F` [Compound 3b], in series [3], the “Selectivity Index (SI) T. brucei” value was >3.59. In addition, the IC50 in series [3] was 27.9 ± 5.42 µM; in series [4], 84.39 ± 0.32 µM; in series [5] (healthy human lung fibroblasts) it was > 100 µM. For the same compound, the “Selectivity Index (SI) L. major” value in series [4] is reported as >1.18.
Take `CC1=CC(C)=[N+]2C1=C(c1ccc(N(C)C)c3ccccc13)c1c(C)cc(C)n1[B-]2(F)F` [Compound 1b]: in series [3], the “Selectivity Index (SI) T. brucei” value is 4.21 and the IC50 is 18.2 ± 3.63 µM. In series [4], the “Selectivity Index (SI) L. major” value was 16 and 15.93; the “antileishmanial activity (in words)” value is “present antileishmanial activity”; the IC50 amounted to 4.84 ± 1.56 µM. The compound further showed an IC50 in series [5] (healthy human lung fibroblasts) of 76.8 ± 5.33 µM.

(Values after publication PMC11085077, “Designing Antitrypanosomal and Antileishmanial BODIPY Derivatives: A Computational and In Vitro Assessment” (Molecules, 2024).)
